{"source": "paper PMC11521309", "about": "“A novel 4-aminoquinoline chemotype with multistage antimalarial activity and lack of cross-resistance with PfCRT and PfMDR1 mutants” (PLOS Pathogens, 2024)", "key": {"P. falciparum Dd2^T93S": {"tested_on": "P. falciparum Dd2^T93S", "parameters": "key to Phenotype, Dd2^T93S: S: sensitive; R: resistant", "settings": "cited from earlier work"}, "P. falciparum NF10^NF": {"tested_on": "P. falciparum NF10^NF", "parameters": "method as in ref 1 Veiga et al. 2016", "settings": "means ± SEM, N 6; ref 1 Veiga et al. 2016; read-out: IC50 NF10NF; cited from earlier work"}, "P. falciparum Dd2^3D7": {"tested_on": "P. falciparum Dd2^3D7", "parameters": "key: S: sensitive; R: resistant", "settings": "ref [19],[20],[51]; cited from earlier work"}, "P. falciparum FCB": {"tested_on": "P. falciparum FCB", "settings": "read-out: IC50 FCB; means ± SEM, N 4; ref 2 Sidhu et al. 2006; cited from earlier work"}, "P. falciparum FCB^KD1": {"tested_on": "P. falciparum FCB^KD1", "parameters": "method as in ref 2 Sidhu et al. 2006", "settings": "means ± SEM, N 4; ref 2 Sidhu et al. 2006; read-out: IC50 FCBKD1; cited from earlier work"}, "P. falciparum 7G8^7G8": {"tested_on": "P. falciparum 7G8^7G8", "parameters": "key to Phenotype, 7G8^7G8: S: sensitive; R: resistant", "settings": "cited from earlier work"}, "P. falciparum Dd2^I218F": {"tested_on": "P. falciparum Dd2^I218F", "parameters": "key to Phenotype, Dd2^I218F: S: sensitive; R: resistant", "settings": "cited from earlier work"}, "P. falciparum Dd2^H97Y": {"tested_on": "P. falciparum Dd2^H97Y", "parameters": "key: S: sensitive; R: resistant", "settings": "ref [19],[20],[51]; cited from earlier work"}, "P. falciparum 7G8^F145I": {"tested_on": "P. falciparum 7G8^F145I", "parameters": "key to Phenotype, 7G8^F145I: S: sensitive; R: resistant", "settings": "cited from earlier work"}, "P. falciparum NF10^YF": {"tested_on": "P. falciparum NF10^YF", "parameters": "method as in ref 1 Veiga et al. 2016", "settings": "means ± SEM, N 6; ref 1 Veiga et al. 2016; read-out: IC50 NF10YF; cited from earlier work"}, "P. falciparum Dd2^Dd2": {"tested_on": "P. falciparum Dd2^Dd2", "parameters": "key to Phenotype, Dd2^Dd2: S: sensitive; R: resistant", "settings": "cited from earlier work"}, "[1]": {"tested_on": "P. berghei PbGFP-Luccon liver stage", "assay": "In vitro inhibition of liver stage infection of Huh-7 cells, bioluminescence", "format": "cell-based, Plasmodium berghei", "experimental": "(§1) In vitro inhibition of Plasmodium liver stage infection was assessed using bioluminescence data from Huh-7 cells infected with a firefly-luciferase-expressing P. berghei line, PbGFP-Luccon, in the presence of various compound concentrations. […] One day before drug treatment and infection, 10^4 Huh-7 cells/well were seeded in 96-well plates. The medium was then replaced by an infection medium (culture medium supplemented with 50 μg/mL gentamycin and 0.8 μg/mL amphotericin B) containing desired concentrations of test compounds. Fresh sporozoites recovered from salivary glands of infected female Anopheles stephensi mosquitoes were added to seeded Huh-7 cells at a 1:1 proportion, followed by centrifugation at 1700g for 5 minutes and incubation for 46 hours at 37°C under 5% CO2. Compound toxicity against Huh-7 cells was assessed by measuring […] using the Alamar Blue assay (Invitrogen). IC50 values were calculated using nonlinear regression analysis (GraphPad Prism version 9)."}, "Huh-7 cells": {"tested_on": "Huh-7 cells", "assay": "Host cell confluency, Alamar Blue", "format": "cell-based, human", "experimental": "as §1"}, "[2]": {"assay": "Host cell confluency, Alamar Blue", "format": "cell-based, human", "settings": "human, pH 7; maximum concentration of 4 μM; read-out: Huh-7 cell viability", "experimental": "as §1"}, "[3]": {"tested_on": "P. falciparum Dd2-Pol δ parasites", "assay": "Single-step in vitro resistance selection", "format": "cell-based, Plasmodium falciparum", "experimental": "Resistance to LDT-623 was assessed using single-step in vitro resistance selection protocols. […] Dd2-Pol δ is a hypermutable line with two point mutations in DNA polymerase δ that compromise its proofreading activity Cultures were monitored daily by thin blood smears until live parasites were no longer detectable. Drug-containing media was changed daily until parasites cleared, and every other day thereafter. Cultures were passaged once weekly by reducing the volume by 25% and replacing 1/3 of RBCs. Recrudescence monitoring was carried out twice a week by thin blood smears for 60 days. In the event of recrudescence, parasite susceptibility to LDT-623 was tested as described above."}, "[4]": {"settings": "Dd2T93S, mean ± SEM, ref 2 (Dhingra et al., 2019)"}, "[5]": {"settings": "Dd2I218F, mean ± SEM, ref 2 (Dhingra et al., 2019)"}, "[6]": {"settings": "0.01 µM, Rep #1, Rep #2 singly, DMSO = 100"}, "[7]": {"settings": "0.10 µM, Rep #1, Rep #2 singly, DMSO = 100"}, "[8]": {"settings": "0.50 µM, Rep #1, Rep #2 singly, DMSO = 100"}, "[9]": {"settings": "1.00 µM, Rep #1, Rep #2 singly, DMSO = 100"}, "[10]": {"settings": "1.50 µM, Rep #2 only, DMSO = 100"}, "[11]": {"settings": "2.00 µM, Rep #1, Rep #2 singly, DMSO = 100"}, "[12]": {"settings": "3.00 µM, Rep #1, Rep #2 singly, DMSO = 100"}, "[13]": {"settings": "4.00 µM, Rep #1 only, DMSO = 100"}}, "note": "Several values for one entry are separate records, joined by “and”; a condition that tells them apart may be missing. Equal values may be shown once.", "data": [{"smiles": "CCN(CC)CCCC(C)Nc1ccnc2cc(Cl)ccc12", "note": "(stereo not shown) [CQ, chloroquine]", "values": [{"measurement": "IC50", "setting": "P. falciparum Dd2^T93S; [4]", "value": "61.9 ± 7.6", "unit": "nM"}, {"measurement": "IC90", "setting": "P. falciparum Dd2^T93S; [4]", "value": "141 ± 6.3", "unit": "nM"}, {"measurement": "Phenotype, Dd2^T93S", "setting": "P. falciparum Dd2^T93S; ref [19],[20],[51]", "value": "R"}, {"measurement": "IC50", "setting": "P. falciparum NF10^NF", "value": "216 ± 15.3", "unit": "nM"}, {"measurement": "Phenotype, Dd2^3D7", "setting": "P. falciparum Dd2^3D7", "value": "S"}, {"measurement": "IC50", "setting": "P. falciparum FCB", "value": "217 ± 34.6", "unit": "nM"}, {"measurement": "IC50", "setting": "P. falciparum FCB^KD1", "value": "242 ± 43.9", "unit": "nM"}, {"measurement": "IC50", "setting": "P. falciparum 7G8^7G8; 7G87G8, mean ± SEM, ref 3 (Kim et al., 2019)", "value": "83 ± 7.5", "unit": "nM"}, {"measurement": "Phenotype, 7G8^7G8", "setting": "P. falciparum 7G8^7G8; ref [19],[20],[51]", "value": "R"}, {"measurement": "IC50", "setting": "P. falciparum Dd2^I218F; [5]", "value": "36.7 ± 4.3", "unit": "nM"}, {"measurement": "IC90", "setting": "P. falciparum Dd2^I218F; [5]", "value": "85.3 ± 4.9", "unit": "nM"}, {"measurement": "Phenotype, Dd2^I218F", "setting": "P. falciparum Dd2^I218F; ref [19],[20],[51]", "value": "S"}, {"measurement": "Phenotype, Dd2^H97Y", "setting": "P. falciparum Dd2^H97Y", "value": "R"}, {"measurement": "IC50", "setting": "P. falciparum 7G8^F145I; 7G8F145I, mean ± SEM, ref 3 (Kim et al., 2019)", "value": "7.3 ± 0.4", "unit": "nM"}, {"measurement": "Phenotype, 7G8^F145I", "setting": "P. falciparum 7G8^F145I; ref [19],[20],[51]", "value": "S"}, {"measurement": "IC50", "setting": "P. falciparum NF10^YF", "value": "347 ± 24.4", "unit": "nM"}, {"measurement": "IC50", "setting": "P. falciparum Dd2^Dd2; Dd2Dd2, mean ± SEM, ref 1 (Ross et al., 2018)", "value": "156 ± 9.3", "unit": "nM"}, {"measurement": "IC90", "setting": "P. falciparum Dd2^Dd2; Dd2Dd2, mean ± SEM, ref 2 (Dhingra et al., 2019)", "value": "214 ± 7.4", "unit": "nM"}, {"measurement": "Phenotype, Dd2^Dd2", "setting": "P. falciparum Dd2^Dd2; ref [19],[20],[51]", "value": "R"}]}, {"smiles": "COc1cc2nccc(Nc3cccc(Oc4ccccc4)c3)c2cc1OC", "note": "[LDT-623]", "values": [{"measurement": "% Infection", "setting": "[1]; 0.01 µM, Average", "value": 105.58, "unit": "%"}, {"measurement": "% Infection", "setting": "[1]; [6]", "value": "99.71% and 111.44%"}, {"measurement": "% Infection", "setting": "[1]; 0.10 µM, Average", "value": 109.90, "unit": "%"}, {"measurement": "% Infection", "setting": "[1]; [7]", "value": "116.90% and 102.90%"}, {"measurement": "% Infection", "setting": "[1]; 0.50 µM, Average", "value": 89.46, "unit": "%"}, {"measurement": "% Infection", "setting": "[1]; [8]", "value": "98.58% and 80.35%"}, {"measurement": "% Infection", "setting": "[1]; 1.00 µM, Average", "value": 47.89, "unit": "%"}, {"measurement": "% Infection", "setting": "[1]; [9]", "value": "59.84% and 35.94%"}, {"measurement": "% Infection", "setting": "[1]; 1.50 µM, Average", "value": 16.43, "unit": "%"}, {"measurement": "% Infection", "setting": "[1]; [10]", "value": 16.43, "unit": "%"}, {"measurement": "% Infection", "setting": "[1]; 2.00 µM, Average", "value": 10.50, "unit": "%"}, {"measurement": "% Infection", "setting": "[1]; [11]", "value": "13.79% and 7.22%"}, {"measurement": "% Infection", "setting": "[1]; 3.00 µM, Average", "value": 3.61, "unit": "%"}, {"measurement": "% Infection", "setting": "[1]; [12]", "value": "5.04% and 2.18%"}, {"measurement": "% Infection", "setting": "[1]; 4.00 µM, Average", "value": 3.01, "unit": "%"}, {"measurement": "% Infection", "setting": "[1]; [13]", "value": 3.01, "unit": "%"}, {"measurement": "inhibition at 1 µM", "setting": "[1]; Plasmodium berghei, Huh-7, 1 μM, read-out: inhibition of hepatic infection", "value": 52.1, "unit": "%"}, {"measurement": "IC50", "setting": "[1]; Plasmodium berghei, Huh-7 cells, P. berghei sporozoites, 48h, N = 2, read-out: IC50 hepatic stage infection", "value": 983, "unit": "nM"}, {"measurement": "% Confluency", "setting": "Huh-7 cells; 0.01 µM, Average", "value": 101.66, "unit": "%"}, {"measurement": "% Confluency", "setting": "Huh-7 cells; [6]", "value": "99.85% and 103.48%"}, {"measurement": "% Confluency", "setting": "Huh-7 cells; 0.10 µM, Average", "value": 101.70, "unit": "%"}, {"measurement": "% Confluency", "setting": "Huh-7 cells; [7]", "value": "101.55% and 101.85%"}, {"measurement": "% Confluency", "setting": "Huh-7 cells; 0.50 µM, Average", "value": 106.57, "unit": "%"}, {"measurement": "% Confluency", "setting": "Huh-7 cells; [8]", "value": "104.91% and 108.24%"}, {"measurement": "% Confluency", "setting": "Huh-7 cells; 1.00 µM, Average", "value": 99.74, "unit": "%"}, {"measurement": "% Confluency", "setting": "Huh-7 cells; [9]", "value": "99.78% and 99.70%"}, {"measurement": "% Confluency", "setting": "Huh-7 cells; 1.50 µM, Average", "value": 103.34, "unit": "%"}, {"measurement": "% Confluency", "setting": "Huh-7 cells; [10]", "value": 103.34, "unit": "%"}, {"measurement": "% Confluency", "setting": "Huh-7 cells; 2.00 µM, Average", "value": 99.65, "unit": "%"}, {"measurement": "% Confluency", "setting": "Huh-7 cells; [11]", "value": "99.68% and 99.63%"}, {"measurement": "% Confluency", "setting": "Huh-7 cells; 3.00 µM, Average", "value": 92.74, "unit": "%"}, {"measurement": "% Confluency", "setting": "Huh-7 cells; [12]", "value": "93.69% and 91.80%"}, {"measurement": "% Confluency", "setting": "Huh-7 cells; 4.00 µM, Average", "value": 86.71, "unit": "%"}, {"measurement": "% Confluency", "setting": "Huh-7 cells; [13]", "value": 86.71, "unit": "%"}, {"measurement": "viability at 46 h, 4 µM", "setting": "[2]", "value": "> 86", "unit": "%"}, {"measurement": "recrudescence under constant drug pressure", "setting": "[3]; 3 × IC50 (1 μM), 1 × 10^9 parasites, 60 days", "value": "No parasite recrudescence"}, {"measurement": "log minimum inoculum of resistance (MIR)", "setting": "[3]; constant drug pressure", "value": "higher than 9"}, {"measurement": "day of recrudescence", "setting": "[3]; drug pressure removed after day 7, both flasks", "value": 21, "unit": "days"}, {"measurement": "IC50 of recrudescent bulk parasites vs Dd2-Polδ parent", "setting": "[3]; either flask", "value": "no difference in IC50"}]}]}
